Laboratory results: PubChem BioAssay (NCI)
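Growth conditions: 96-well plates. Treatment: test compound, 48 hours, 5 concentrations. Analysis: linear interpolation between bracketing concentrations; unreached endpoints set to highest concentration. GI50 is the concentration that inhibits growth by half. Definition used: TGI = concentration required for complete inhibition of growth.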

What was measured:
Test in all cases: NCI anticancer screen, dose series, 48 h
[1] = system: RXF 393 renal
[2] = system: CAKI-1 renal
[3] = system: SK-OV-3 ovarian
[4] = system: SW-620 colon
[5] = system: NCI-H460 lung
[6] = system: MOLT-4 leukemia
[7] = system: CCRF-CEM leukemia
[8] = system: DU-145 prostate
[9] = system: MDA-MB-231 breast
[10] = system: SR leukemia

Compound	TGI [1] [µM]	TGI [2] [µM]	TGI [3] [µM]	TGI [4] [µM]	TGI [5] [µM]	TGI [6] [µM]	TGI [7] [µM]	TGI [8] [µM]	TGI [9] [µM]	TGI [10] [µM]	GI50 [1] [µM]	GI50 [2] [µM]	GI50 [3] [µM]	GI50 [4] [µM]	GI50 [5] [µM]	GI50 [6] [µM]	GI50 [8] [µM]	GI50 [9] [µM]	GI50 [10] [µM]	GI50 [7] [µM]
Cc1ccc(S(=O)(=O)NC(=O)C2C(=O)CC3(CCCCC3)CC2=O)cc1	> 100	65.9	> 100	84.7	74.9	> 100	69.8	> 100	> 100	–	–	–	–	–	–	–	–	–	–	–
CCC12CCCN(Cc3ccccc3)C1c1c([nH]c3ccccc13)C(C(=O)OC)C2 (stereo not drawn)	–	> 10	> 10	> 10	–	> 10	> 10	> 10	> 10	> 10	–	–	–	–	–	–	–	–	–	–
COc1ccc2c(CN3CCCCC3CO)cc3cc(OC)c(OC)cc3c2c1 (stereo not drawn)	18	–	70.2	15.7	–	14.9	18.8	–	–	22.2	–	–	–	–	–	–	–	–	–	–
COCCCNC(=O)C1C(=O)N(CCCOC)C(=O)/C1=N\N (stereo not drawn)	> 100	–	–	> 100	> 100	> 100	> 100	–	–	–	–	–	–	–	–	–	–	–	–	–
O=C1c2ccccc2C(Br)(Br)c2ccccc21	> 31.6	–	> 31.6	> 31.6	> 31.6	> 31.6	> 31.6	–	–	> 31.6	–	–	–	–	–	–	–	–	–	–
Cc1ccc(S(=O)(=O)N/N=C(\c2nc3ccc(Cl)cc3[nH]c2=O)C(O)c2cccc([N+](=O)[O-])c2)cc1 (stereo not drawn)	> 100	> 100	> 100	> 100	> 100	> 100	> 100	–	–	> 100	–	–	–	–	–	–	–	–	–	–
CN(C)CC(C)(C)C(=O)/C=C/c1ccc(/C=C/C(=O)C(C)(C)CN(C)C)cc1	2.66	2.9	8.12	2.17	13.9	–	3.78	–	–	5.45	–	–	–	–	–	–	–	–	–	–
CCC[CH2][Sn]([CH2]CCC)([CH2]CCC)[O]c1ccc(Cl)cc1Cl	0.296	0.258	0.276	0.279	0.25	2.77	–	0.271	0.284	–	0.142	0.0878	0.137	0.131	0.0977	0.165	0.13	0.122	–	–
CCC[CH2][Sn]1([CH2]CCC)[O]CC(Cc2ccccc2)[O]1 (stereo not drawn)	2.84	4.45	25.1	3.48	23.4	6.07	4.57	–	–	4.84	1.47	1.51	12	1.63	11	1.64	–	–	1.35	1.22
Cc1ccc(-c2csc(/N=C3\C(=O)Nc4ccccc43)n2)cc1	3.16	–	3.55	3.66	3.74	–	5.4	5.99	3.48	–	1.49	–	1.61	1.62	1.76	–	2.16	1.52	–	1.78
CC(=O)[O][Ga]([Cl])[O]C(C)=O	> 100	> 100	> 100	> 100	> 100	> 100	> 100	–	–	> 100	> 100	> 100	> 100	> 100	> 100	> 100	–	–	> 100	> 100
COc1cc2c(c(OC)c1OC)-c1ccc(SC)c(=O)cc1[C@@H](NCc1ccc(C#N)cc1)CC2	0.00508	> 100	–	> 100	–	> 100	–	–	–	18.5	–	–	–	–	–	–	–	–	–	–
C=C1C(=O)O[C@H]2[C@H]1CC/C(COC(=O)CSCCSCC(=O)OC/C1=C/CC[C@@]3(C)O[C@H]3[C@H]3OC(=O)C(=C)[C@@H]3CC1)=C\CC[C@@]1(C)O[C@@H]21	3.03	3.31	15.3	3.45	6.43	3.89	3.24	3.37	3.14	–	1.55	1.79	4.48	1.48	2.28	1.16	1.77	1.58	–	0.468
Nc1ccccc1C(=O)CC1OC(=O)c2ccccc21 (stereo not drawn)	–	–	> 100	> 100	> 100	> 100	–	> 100	> 100	> 100	–	–	–	–	–	–	–	–	–	–
COC(=O)N(C(=O)OC)C(C(=O)O)C(C)C (stereo not drawn)	> 100	> 100	–	> 100	> 100	–	–	–	–	–	–	–	–	–	–	–	–	–	–	–
CC(C)(C)N=NNc1cn(C2OC(CO)C(O)C2O)c(=O)[nH]c1=O (stereo not drawn)	> 100	> 100	> 100	34.7	> 100	> 100	95.4	–	–	50.8	–	–	–	–	–	–	–	–	–	–
O=c1nc(/C=C/c2ccccc2Cl)cc2n1CCN2CCO	> 100	> 100	> 100	> 100	> 100	> 100	> 100	–	–	> 100	–	–	–	–	–	–	–	–	–	–
Cc1ccc(SC(CCC(Sc2ccc(C)cc2)Sc2ccc(C)cc2)Sc2ccc(C)cc2)cc1	> 100	> 100	> 100	> 100	> 100	> 100	> 100	–	–	> 100	–	–	–	–	–	–	–	–	–	–
CC1CCC2(CC1)NN=c1s/c(=C\c3ccc(O)cc3)c(=O)n1N2 (stereo not drawn)	> 100	–	> 100	> 100	> 100	> 100	> 100	–	–	–	–	–	–	–	–	–	–	–	–	–
COc1cc(NC(N)=NCCC(C)(C)Oc2ccc(C(F)(F)F)cc2)ncc1C#N	3.11	2.9	3.26	3.46	3.39	–	–	3.12	3.21	–	1.68	1.55	1.84	1.69	1.72	–	1.72	1.75	–	–
COc1ccc(OC)c(/C(C)=N/NC(N)=S)c1	> 100	> 100	> 100	> 100	> 100	> 100	> 100	–	–	> 100	–	–	–	–	–	–	–	–	–	–
